Experimental data: article PMC5444710, “Enhancement of radiosensitivity by the novel anticancer quinolone derivative vosaroxin in preclinical glioblastoma models” (Oncotarget, 2017)

Columns and labels:
[1] = tested on: CSCs-7 patient-derived glioblastoma stem cell line; experiment: Inhibition of proliferation (cell viability); format: cell-based; details: Homo sapiens
Description: (§1) Thirteen human glioma cell lines (U251, U373, SNB19, U118, U138, U87MG, A172, LN229, LN19, SW1783, T98G, SF-268, and D54) were cultured at 37°C in 5% CO2 and were maintained in Dulbecco’s modified Eagle medium (DMEM) containing 10% (v/v) fetal bovine serum, 4 mM glutamine, 100 IU/mL penicillin, 100 μg/mL streptomycin, and 1% nonessential amino acid (Invitrogen Life Technologies, Inc., Rockville, MD, USA). To minimize the risk of working with misidentified and/or contaminated cell lines, the cells used in studies reported here were stocked at very low passages after initial receipt from the vendor to reduce the possibility of contaminated cell line stocks and used at < 20 subcultures. Periodically, DNA profiling by GenePrint® 10 System (Promega Corporation, Madison, WI, USA) was carried out to authenticate cell cultures. Luciferase-transfected U251 cells were kindly provided by Jari E. Heikkila, department of Biochemistry and Pharmacy, Abo Akademi University, Turku, Finland. […] These non-commercially available, patient-derived cells were analyzed using short tandem repeat profiles. The expression of MGMT, p53, and PTEN was detected in western blots with antibodies from Santa Cruz against MGMT (sc166528), wt p53 (sc-100), total p53 (sc-126), and PTEN (sc-7974).
(§2) Cells were seeded at a density of 2 × 10^4 cells/mL in 24-well plates. […] At the conclusion of the treatment period, cells were trypsinized and resuspended in 1.0 mL of saline; viable cells were counted using the NucleoCounter™ NC-100 (Chemotec, Cydevang, Denmark). […] IC50 values were calculated using GraFit (Erithacus Software Limited, Staines, UK).

[2] = tested on: BT12M patient-derived glioblastoma stem cell line; experiment: Inhibition of proliferation (cell viability); format: cell-based; details: Homo sapiens
Description: as §1, §2

[3] = tested on: CSCs-5 patient-derived glioblastoma stem cell line; experiment: Inhibition of proliferation (cell viability); format: cell-based; details: Homo sapiens
Description: as §1, §2

U251 xenografts = experiment: Cytokine expression in xenograft tissue extracts (ELISA); format: in vivo, female CD1-nu/nu mice; details: U251 xenograft tissue extract
Description: (§3) After appropriate treatments, tumor cell cultures and tissues were harvested for analysis of cytokine expression. Cell pellets were washed with PBS and lysed with RIPA buffer. Cell lysates and conditioned media were assayed by ELISA to measure (i) active human caspase-3 (CBA045, Merck Chemicals Ltd., Nottingham, UK), (ii) beclin-1 (E98557Hu, USCN Life Sciences, Houston, TX, USA), and (iii) DNA damage (EpiQuik in situ DNA Damage Assay Kit, Epigentek, Farmingdale, NY, USA). Tumor extracts were analyzed for the presence of:
(§4) • MMP-2 (KHC3081) • TNF-α (KHC3011, Life Technologies Italia, Monza, Italy) • CXCR4 (Cyto Glow CXCR4 [pSer339], cell-based ELISA, Assay Biotech, Sunnyvale, CA, USA) • Human Fas ligand (ELH-FASL, RayBiotech, Norcross, GA, USA) • IL-6 (orb50052) and survivin (orb50135) (Biorbyt) • TGF-β1 (Quantikine ELISA Kit, DB100B, R&D Systems, Minneapolis, MN, USA) • SDF-1α (Human CXCL12/SDF-1α Quantikine ELISA Kit, DSA00, R&D Systems) • Mouse IL-10 DuoSet ELISA DY417 (R&D Systems Minneapolis, MN, USA) • Mouse NOS2 / iNOS ELISA Kit (Sandwich ELISA) - LS-F12166 (LifeSpan Biosciences, Inc, Seattle, WA, USA) • Mouse ARG1 / Arginase-1 ELISA Kit (Sandwich ELISA) - LS-F10883 (LifeSpan Biosciences, Inc, Seattle, WA, USA)
(§5) All determinations were performed in triplicate, according to manufacturers’ instructions. Data are presented as mean ± SE. Cytokine secretion determined by ELISA was normalized to total protein concentration in tissue lysates.

U87MG xenografts = experiment: as above; format: in vivo, female CD1-nu/nu mice; details: U87MG xenograft tissue extract
Description: as §3, §4, §5

T98G xenografts = experiment: as above; format: in vivo, female CD1-nu/nu mice; details: T98G xenograft tissue extract
Description: as §3, §4, §5

**Q.** Which results are given for `CN[C@H]1CN(c2ccc3c(=O)c(C(=O)O)cn(-c4nccs4)c3n2)C[C@@H]1OC` [vosaroxin]?
**A.** IC50 [1]: 125 ± 15.4 nM; IC50 [2]: 44.3 ± 5.5 nM; IC50 [3]: 85.4 ± 7.8 nM; Human IL-6 (U251 xenografts): 33 ± 8 pg/mg tissue; Human TGF-β1 (U251 xenografts): 35 ± 6; Human TNF-α (U251 xenografts): 7 ± 1 pg/mg tissue; Human and mouse IL-8 (U251 xenografts): 275 ± 35 pg/mg tissue; Mouse IL-1β (U251 xenografts): 44 ± 5 pg/mg tissue; Mouse IL-10 (U251 xenografts): 5.2 ± 0.6; Mouse SDF-1α (U251 xenografts): 32 ± 3; Human IL-6 (U87MG xenografts): 78 ± 13 pg/mg tissue; Human TGF-β1 (U87MG xenografts): 47 ± 8; Human TNF-α (U87MG xenografts): 17 ± 3 pg/mg tissue; Human and mouse IL-8 (U87MG xenografts): 715 ± 37 pg/mg tissue; Mouse IL-1β (U87MG xenografts): 85 ± 10 pg/mg tissue; Mouse IL-10 (U87MG xenografts): 6.2 ± 0.5; Mouse SDF-1α (U87MG xenografts): 18 ± 3; Human IL-6 (T98G xenografts): 30 ± 3 pg/mg tissue; Human TGF-β1 (T98G xenografts): 27 ± 3; Human TNF-α (T98G xenografts): 3 ± 1 pg/mg tissue; Human and mouse IL-8 (T98G xenografts): 440 ± 30 pg/mg tissue; Mouse IL-1β (T98G xenografts): 27 ± 4 pg/mg tissue; Mouse IL-10 (T98G xenografts): < 1.0; Mouse SDF-1α (T98G xenografts): 12 ± 4
